According to patent US20070128217A1 (priority 2003, published 2007):

How the values were obtained:
[1] = test system: antibodies in sera from SARS patients (sera 1a, 1b, 2, 6, 37, 62, London, SARS-yellow, SARS-green); format: binding, human; design: Binding of serum 6 to linear peptides of protein X1 of SARS-CoV Urbani / Binding of serum 37 to linear peptides of protein X1 of SARS-CoV Urbani / Binding of serum 6 to looped/cyclic peptide (PEPSCAN-ELISA) / Binding of serum 37 to looped/cyclic peptide (PEPSCAN-ELISA) / Binding of serum 37 to looped/cyclic peptides of protein X1 of SARS-CoV Urbani / Binding of serum 6 to linear peptides of protein X2 / Binding of serum 37 to linear peptides of protein X2 / Binding of serum 37 to looped/cyclic peptides of protein X2 of SARS-CoV Urbani / Binding of serum 6 to linear peptides of protein M of SARS-CoV Urbani / Binding of serum 37 to linear peptides of protein M of SARS-CoV Urbani / Binding of serum 6 to looped/cyclic peptides of protein M of SARS-CoV Urbani / Binding of serum 37 to looped/cyclic peptides of protein M of SARS-CoV Urbani / Binding of serum 6 to linear peptides of protein X3 of SARS-CoV Urbani / Binding of serum 37 to linear peptides of protein X3 of SARS-CoV Urbani / Binding of serum 37 to looped/cyclic peptides of protein X3 of SARS-CoV Urbani / Binding of serum 6 to linear peptides of protein X4 of SARS-CoV Urbani / Binding of serum 37 to linear peptides of protein X4 of SARS-CoV Urbani / Binding of serum 37 to looped/cyclic peptides of protein X4 of SARS-CoV Urbani / Binding of serum 6 to linear peptides of protein X5 of SARS-CoV Urbani / Binding of serum 37 to linear peptides of protein X5 of SARS-CoV Urbani / Binding of serum 37 to looped/cyclic peptides of protein X5 of SARS-CoV Urbani / Binding of serum 6 to linear peptides of protein N of SARS-CoV Urbani / Binding of serum 37 to linear peptides of protein N of SARS-CoV Urbani / Binding of serum 6 to linear peptide (PEPSCAN-ELISA) / Binding of serum 1a to looped/cyclic peptides of protein N of SARS-CoV Urbani / Binding of serum 1b to looped/cyclic peptides of protein N of SARS-CoV Urbani / Binding of serum 2 to looped/cyclic peptides of protein N of SARS-CoV Urbani / Binding of serum 6 to looped/cyclic peptides of protein N of SARS-CoV Urbani / Binding of serum 37 to looped/cyclic peptides of protein N of SARS-CoV Urbani / Binding of serum 62 to looped/cyclic peptides of protein N of SARS-CoV Urbani / Binding of serum London to looped/cyclic peptides of protein N of SARS-CoV Urbani / Binding of serum SARS-green to looped/cyclic peptides of protein N of SARS-CoV Urbani: unit not given here
[2] = test system: control sera (pooled serum of ten healthy LUMC hospital workers; commercial negative donor pooled serum from the Dutch bloodbank); format: binding, human; design: Binding of Control serum LUMC to linear peptides / Binding of Control serum Blood-bank to linear peptides / Binding of Control serum LUMC to looped peptides / Binding of Control Serum Blood-Bank to Looped peptides / Binding of Control serum LUMC to linear peptides of the protein M of SARS-CoV Urbani / Binding of Control serum Blood-bank to linear peptides of the protein M of SARS-CoV Urbani / Binding of Control serum LUMC to looped peptides of the protein M of SARS-CoV Urbani / Binding of Control Serum Blood-Bank to Looped peptides of the protein M of SARS-CoV Urbani: unit not given here
[3] = test system: rabbit serum obtained by immunizing a rabbit with the SARS-CoV strain Frankfurt 1; format: binding; design: Binding of a rabbit serum to linear peptides / Binding of a rabbit serum to looped peptides / Rabbit serum linear peptides / Rabbit serum looped peptides / Binding of a rabbit serum to linear peptides of protein N of SARS-CoV Urbani (Rabbit serum linear peptides) / Binding of a rabbit serum to looped/cyclic peptides of protein N of SARS-CoV Urbani (Rabbit serum looped peptides): unit not given here
[4] = test system: recombinant human anti-SARS-CoV antibody 03-018; format: binding; design: Binding of antibody 03-018 to linear peptides of the N protein of SARS-CoV Urbani / Binding of antibody 03-018 to looped/cyclic peptides of the N protein of SARS-CoV Urbani: unit not given here

Sequence	Binding of serum 1a to linear peptides of protein N of SARS-CoV Urbani [1]	Binding of serum 1a to looped/cyclic peptides of protein N of SARS-CoV Urbani [1]	Binding of serum 1b to linear peptides of protein N of SARS-CoV Urbani [1]	Binding of serum 1b to looped/cyclic peptides of protein N of SARS-CoV Urbani [1]	Binding of serum 2 to linear peptides of protein N of SARS-CoV Urbani [1]	Binding of serum 2 to looped/cyclic peptides of protein N of SARS-CoV Urbani [1]	Binding of serum 6 to linear peptides of protein N of SARS-CoV Urbani [1]	Binding of serum 6 to looped/cyclic peptides of protein N of SARS-CoV Urbani [1]	Binding of serum 37 to linear peptides of protein N of SARS-CoV Urbani [1]	Binding of serum 37 to looped/cyclic peptides of protein N of SARS-CoV Urbani [1]	Binding of serum 62 to linear peptides of protein N of SARS-CoV Urbani [1]	Binding of serum 62 to looped/cyclic peptides of protein N of SARS-CoV Urbani [1]	Binding of serum London to linear peptides of protein N of SARS-CoV Urbani [1]	Binding of serum London to looped/cyclic peptides of protein N of SARS-CoV Urbani [1]	Binding of serum SARS-green to linear peptides of protein N of SARS-CoV Urbani [1]	Binding of serum SARS-green to looped/cyclic peptides of protein N of SARS-CoV Urbani [1]	Binding of serum SARS-yellow to linear peptides of protein N of SARS-CoV Urbani [1]	Binding of serum SARS-yellow to looped/cyclic peptides of protein N of SARS-CoV Urbani [1]	Binding of antibody 03-018 to linear peptides of the N protein of SARS-CoV Urbani [4]	Binding of antibody 03-018 to looped/cyclic peptides of the N protein of SARS-CoV Urbani [4]	further results
QGTDYKHWPQIAQFA	0.3	0.4	0.2	0.3	0.2	0.4	0.2	0.3	0.8	0.6	0.8	0.6	0.7	0.5	0.2	0.3	0.7	0.7	0.1	0.2	Control Serum Blood-Bank Looped peptides [2]: 0.6; Control serum Blood-bank linear peptides [2]: 0.8; Control serum LUMC linear peptides [2]: 0.6; Control serum LUMC looped peptides [2]: 0.7; Binding of a rabbit serum to linear peptides of protein N of SARS-CoV Urbani (Rabbit serum linear peptides) [3]: 0.2; Binding of a rabbit serum to looped/cyclic peptides of protein N of SARS-CoV Urbani (Rabbit serum looped peptides) [3]: 0.3
QIGYYRRATRRVRGG	0.3	0.3	0.1	0.2	0.2	0.4	0.2	0.3	0.6	0.7	0.6	0.6	0.5	0.4	0.2	0.4	0.6	0.6	0.1	0.2	Binding of Control Serum Blood-Bank to Looped peptides [2]: 0.8; Binding of Control serum Blood-bank to linear peptides [2]: 0.8; Binding of Control serum LUMC to linear peptides [2]: 0.6; Binding of Control serum LUMC to looped peptides [2]: 0.7; Recognition of the peptide by the rabbit serum [3]: recognized
QLQNSMSGASADSTQ	0.2	0.3	0.1	0.1	0.2	0.4	0.1	0.1	0.7	0.4	0.5	0.1	0.6	0.3	0.3	0.1	0.6	0.1	0.1	0.2	Control Serum Blood-Bank Looped peptides [2]: 0.5; Control serum Blood-bank linear peptides [2]: 0.8; Control serum LUMC linear peptides [2]: 0.6; Control serum LUMC looped peptides [2]: 0.4; Binding of a rabbit serum to linear peptides of protein N of SARS-CoV Urbani (Rabbit serum linear peptides) [3]: 0.7; Binding of a rabbit serum to looped/cyclic peptides of protein N of SARS-CoV Urbani (Rabbit serum looped peptides) [3]: 0.5
